The first test deals with recombinant NL4-3 virus (Renilla luciferase in nef, Gag P373S; NLRluc) in MT-2 cells. Nature of the test: whole plant or invertebrate. Type of test: cell-based, HIV. The conditions noted are these: Renilla, NL43, luciferase activity in cells infected for 4-5 days with NLRluc recombinants, serial dilutions of inhibitor; class symbols (key in Table 1); read-out: EC50. Here is the method:
MT-2 cells and 293T cells were obtained from the NIH AIDS Research and Reference Reagent Program. MT-2 cells were propagated in RPMI 1640 media supplemented with 10% heat inactivated fetal bovine serum, […]. The 293T cells were propagated in DMEM media supplemented with 10% heat inactivated fetal bovine serum (FBS), 100 units/ml penicillin G and 100 μg/ml streptomycin. The proviral DNA clone of NL4-3 was obtained from the NIH AIDS Research and Reference Reagent Program. A recombinant NL4-3 virus, in which a section of the nef gene from NL4-3 was replaced with the Renilla luciferase gene, was used as a reference virus. In addition, residue Gag P373 was converted to P373S. Briefly, the recombinant virus was prepared by transfection of the altered proviral clone of NL4-3. Transfections were performed in 293T cells using LipofectAMINE PLUS from Invitrogen (Carlsbad, Calif.), according to manufacturer's instruction. The virus was titered in MT-2 cells using luciferase enzyme activity as a marker. Luciferase was quantitated using the Dual Luciferase kit from Promega (Madison, Wis.), with modifications to the manufacturer's protocol. The diluted Passive Lysis solution was pre-mixed with the re-suspended Luciferase Assay Reagent and the re-suspended Stop & Glo Substrate (2:1:1 ratio). Fifty (50) μL of the mixture was added to each aspirated well on assay plates and luciferase activity was measured immediately on a Wallac TriLux (Perkin-Elmer). Antiviral activities of inhibitors toward the recombinant virus were quantified by measuring luciferase activity in cells infected for 4-5 days with NLRluc recombinants in the presence serial dilutions of the inhibitor. Table 1 is the key for the data in Table 2.
On to `C=C(C)[C@@H]1CC[C@]2(NC(=O)N3CCN(C(=O)OC(C)(C)C)CC3CO)CC[C@]3(C)[C@H](CC[C@@H]4[C@@]5(C)CC=C(c6ccc(C(=O)O)cc6)C(C)(C)[C@@H]5CC[C@]43C)[C@@H]12` (mixture of isomers) [Example 61, 4-((1R,3aS,5aR,5bR,7aR,11aS,11bR,13aR,13bR)-3a-(4-(tert-butoxycarbonyl)-2-(hydroxymethyl)piperazine-1-carboxamido)-5a,5b,8,8,11a-pentamethyl-1-(prop-1-en-2-yl)-2,3,3a,4,5,5a,5b,6,7,7a,8,11,11a,11b,12,13,13a,13b-octadecahydro-1H-cyclopenta[a]chrysen-9-yl)benzoic acid], for which the EC50 was < 100 nM.

In the case of `C=C(C)[C@@H]1CC[C@]2(NC(=O)N3CCN(C(=O)OC(C)(C)C)CC3C(=O)O)CC[C@]3(C)[C@H](CC[C@@H]4[C@@]5(C)CC=C(c6ccc(C(=O)O)cc6)C(C)(C)[C@@H]5CC[C@]43C)[C@@H]12` (mixture of isomers) [Example 62, 4-(tert-butoxycarbonyl)-1-((1R,3aS,5aR,5bR,7aR,11aS,11bR,13aR,13bR)-9-(4-carboxyphenyl)-5a,5b,8,8,11a-pentamethyl-1-(prop-1-en-2-yl)-2,3,3a,4,5,5a,5b,6,7,7a,8,11,11a,11b,12,13,13a,13b-octadecahydro-1H-cyclopenta[a]chrysen-3a-ylcarbamoyl)piperazine-2-carboxylic acid], the EC50 is < 100 nM. `C=C(C)[C@@H]1CC[C@]2(NC(=O)N3CCNC(C(=O)O)C3)CC[C@]3(C)[C@H](CC[C@@H]4[C@@]5(C)CC=C(c6ccc(C(=O)O)cc6)C(C)(C)[C@@H]5CC[C@]43C)[C@@H]12` (mixture of isomers) [Example 63, 4-((1R,3aS,5aR,5bR,7aR,11aS,11bR,13aR,13bR)-9-(4-carboxyphenyl)-5a,5b,8,8,11a-pentamethyl-1-(prop-1-en-2-yl)-2,3,3a,4,5,5a,5b,6,7,7a,8,11,11a,11b,12,13,13a,13b-octadecahydro-1H-cyclopenta[a]chrysen-3a-ylcarbamoyl)piperazine-2-carboxylic acid]: the EC50 was < 100 nM. In the case of `C=C(C)[C@@H]1CC[C@]2(NC(=O)N3CCNCC(O)C3)CC[C@]3(C)[C@H](CC[C@@H]4[C@@]5(C)CC=C(c6ccc(C(=O)O)cc6)C(C)(C)[C@@H]5CC[C@]43C)[C@@H]12` (mixture of isomers) [Example 64, 4-((1R,3aS,5aR,5bR,7aR,11aS,11bR,13aR,13bR)-3a-(6-hydroxy-1,4-diazepane-1-carboxamido)-5a,5b,8,8,11a-pentamethyl-1-(prop-1-en-2-yl)-2,3,3a,4,5,5a,5b,6,7,7a,8,11,11a,11b,12,13,13a,13b-octadecahydro-1H-cyclopenta[a]chrysen-9-yl)benzoic acid], the EC50 is < 100 nM.

For the compound `C=C(C)[C@@H]1CC[C@]2(NC(=O)C(c3ccccc3)N3CCS(=O)(=O)CC3)CC[C@]3(C)[C@H](CC[C@@H]4[C@@]5(C)CC=C(c6ccc(C(=O)O)cc6)C(C)(C)[C@@H]5CC[C@]43C)[C@@H]12` (single isomer, unassigned) [Example 91], the EC50 is < 100 nM. The same measure, in the same setting: under `C=C(C)[C@@H]1CC[C@]2(NC(=O)C(C(C)C)N3CCS(=O)(=O)CC3)CC[C@]3(C)[C@H](CC[C@@H]4[C@@]5(C)CC=C(c6ccc(C(=O)O)cc6)C(C)(C)[C@@H]5CC[C@]43C)[C@@H]12` (single isomer, unassigned) [Example 110] stands < 100 nM. On the same count and under the same terms, under `C=C(C)[C@@H]1CC[C@]2(N)CC[C@]3(C)[C@H](CC[C@@H]4[C@@]5(C)CC=C(c6ccc(C(=O)O)cc6)C(C)(C)[C@@H]5CC[C@]43C)[C@@H]12` [Example 1, 4-((1R,3aS,5aR,5bR,7aR,11aS,11bR,13aR,13bR)-3a-amino-5a,5b,8,8,11a-pentamethyl-1-(prop-1-en-2-yl)-2,3,3a,4,5,5a,5b,6,7,7a,8,11,11a,11b,12,13,13a,13b-octadecahydro-1H-cyclopenta[a]chrysen-9-yl)benzoic acid] stands < 100 nM; under `C=C(C)[C@@H]1CC[C@]2(NC(=O)NCC3(NC(=O)OC(C)(C)C)CC3)CC[C@]3(C)[C@H](CC[C@@H]4[C@@]5(C)CC=C(c6ccc(C(=O)O)cc6)C(C)(C)[C@@H]5CC[C@]43C)[C@@H]12` [Example 2], < 100 nM; under `C=C(C)[C@@H]1CC[C@]2(NC(=O)NC3(C(=O)O)CC3)CC[C@]3(C)[C@H](CC[C@@H]4[C@@]5(C)CC=C(c6ccc(C(=O)O)cc6)C(C)(C)[C@@H]5CC[C@]43C)[C@@H]12` [Example 4, 4-((1R,3aS,5aR,5bR,7aR,11aS,11bR,13aR,13bR)-3a-(3-(1-carboxycyclopropyl)ureido)-5a,5b,8,8,11a-pentamethyl-1-(prop-1-en-2-yl)-2,3,3a,4,5,5a,5b,6,7,7a,8,11,11a,11b,12,13,13a,13b-octadecahydro-1H-cyclopenta[a]chrysen-9-yl)benzoic acid], > 100 nM. For `C=C(C)[C@@H]1CC[C@]2(NC(=O)NC(C)(C)CN3CCOCC3)CC[C@]3(C)[C@H](CC[C@@H]4[C@@]5(C)CC=C(c6ccc(C(=O)O)cc6)C(C)(C)[C@@H]5CC[C@]43C)[C@@H]12` [Example 5, 4-((1R,3aS,5aR,5bR,7aR,11aS,11bR,13aR,13bR)-5a,5b,8,8,11a-pentamethyl-3a-(3-(2-methyl-1-morpholinopropan-2-yl)ureido)-1-(prop-1-en-2-yl)-2,3,3a,4,5,5a,5b,6,7,7a,8,11,11a,11b,12,13,13a,13b-octadecahydro-1H-cyclopenta[a]chrysen-9-yl)benzoic acid], the EC50 is < 100 nM. Same read-out and setting: then `C=C(C)[C@@H]1CC[C@]2(NC(=O)NCC(C)(C)N3CCOCC3)CC[C@]3(C)[C@H](CC[C@@H]4[C@@]5(C)CC=C(c6ccc(C(=O)O)cc6)C(C)(C)[C@@H]5CC[C@]43C)[C@@H]12` [Example 6, 4-((1R,3aS,5aR,5bR,7aR,11aS,11bR,13aR,13bR)-5a,5b,8,8,11a-pentamethyl-3a-(3-(2-methyl-2-morpholinopropyl)ureido)-1-(prop-1-en-2-yl)-2,3,3a,4,5,5a,5b,6,7,7a,8,11,11a,11b,12,13,13a,13b-octadecahydro-1H-cyclopenta[a]chrysen-9-yl)benzoic acid], with < 100 nM; and `C=C(C)[C@@H]1CC[C@]2(NC(=O)NC3(CN(CC)CC)CC3)CC[C@]3(C)[C@H](CC[C@@H]4[C@@]5(C)CC=C(c6ccc(C(=O)O)cc6)C(C)(C)[C@@H]5CC[C@]43C)[C@@H]12` [Example 7, 4-((1R,3aS,5aR,5bR,7aR,11aS,11bR,13aR,13bR)-3a-(3-(1-((diethylamino)methyl)cyclopropyl)ureido)-5a,5b,8,8,11a-pentamethyl-1-(prop-1-en-2-yl)-2,3,3a,4,5,5a,5b,6,7,7a,8,11,11a,11b,12,13,13a,13b-octadecahydro-1H-cyclopenta[a]chrysen-9-yl)benzoic acid], with < 100 nM; and `C=C(C)[C@@H]1CC[C@]2(NC(=O)NC3(CN4CCCCC4)CC3)CC[C@]3(C)[C@H](CC[C@@H]4[C@@]5(C)CC=C(c6ccc(C(=O)O)cc6)C(C)(C)[C@@H]5CC[C@]43C)[C@@H]12` [Example 8, 4-((1R,3aS,5aR,5bR,7aR,11aS,11bR,13aR,13bR)-5a,5b,8,8,11a-pentamethyl-3a-(3-(1-(piperidin-1-ylmethyl)cyclopropyl)ureido)-1-(prop-1-en-2-yl)-2,3,3a,4,5,5a,5b,6,7,7a,8,11,11a,11b,12,13,13a,13b-octadecahydro-1H-cyclopenta[a]chrysen-9-yl)benzoic acid], with < 100 nM.

The same test, now with this note: Renilla, NL43, luciferase activity in cells infected for 4-5 days with NLRluc recombinants, serial dilutions of inhibitor; numeric values; read-out: EC50.
With `C=C(C)[C@@H]1CC[C@]2(NC(=O)NCCN(C)C)CC[C@]3(C)[C@H](CC[C@@H]4[C@@]5(C)CC=C(c6ccc(C(=O)O)cc6)C(C)(C)[C@@H]5CC[C@]43C)[C@@H]12` [Example 3, 4-((1R,3aS,5aR,5bR,7aR,11aS,11bR,13aR,13bR)-3a-(3-(2-(dimethylamino)ethyl)ureido)-5a,5b,8,8,11a-pentamethyl-1-(prop-1-en-2-yl)-2,3,3a,4,5,5a,5b,6,7,7a,8,11,11a,11b,12,13,13a,13b-octadecahydro-1H-cyclopenta[a]chrysen-9-yl)benzoic acid], the EC50 stood at 4 nM.

Staying with this test, now noted: luciferase activity in cells infected for 4-5 days with NLRluc recombinants, serial dilutions of inhibitor; class symbols (key in Table 1); read-out: EC50.
Regarding `C=C(C)[C@@H]1CC[C@]2(NC(=O)C(c3ccccc3)N3CCS(=O)(=O)CC3)CC[C@]3(C)[C@H](CC[C@@H]4[C@@]5(C)CC=C(c6ccc(C(=O)O)cc6)C(C)(C)[C@@H]5CC[C@]43C)[C@@H]12` (single isomer, unassigned) [Example 92], the concentration for a half-maximal effect (EC50) was < 100 nM. Consider `C=C(C)[C@@H]1CC[C@]2(NC(=O)C(C(C)C)N3CCS(=O)(=O)CC3)CC[C@]3(C)[C@H](CC[C@@H]4[C@@]5(C)CC=C(c6ccc(C(=O)O)cc6)C(C)(C)[C@@H]5CC[C@]43C)[C@@H]12` (single isomer, unassigned) [Example 111], for which the concentration giving a half-maximal response (EC50) was < 100 nM.

The values are drawn from US20140343000A1 (priority 2011, published 2014).
